# Test results taken from US20160152560A1, “Compounds for the treatment of hypertension and hypertensive end stage renal disease” (THE REGENTS OF THE UNIVERSITY OF CALIFORNIA, priority 2013, published 2016).
# Several values for one entry are separate records, joined by “and”; a condition that tells them apart may be missing. Equal entries are not always repeated. Where two headings read alike, the source gives them in different places. Ends that are not written are not given here.
# Columns and labels:
# [1] = test system: T1, nicotinic cholinergic receptor; assay: Nicotine-stimulated [3H]-norepinephrine (catecholamine) secretion from PC12 cells; type: cell-based, rat; settings: for IC50 / Hill slope (cooperativity of inhibition of secretion): nicotine 30 μM, PC12 cells; for Hill slope (cooperativity of inhibition of secretion): Hill plot; for Norepinephrine secretion at ascending nicotine doses (noncompetitive inhibition): nicotine 10 to 1000 μM, PC12 cells (FIG. 3C); for Inhibition of catecholamine release triggered by nicotine: nicotine stimulation, PC12 cells (FIG. 3B)
# T1 construct: nicotine 30 μM, PC12 cells, 30 min; other: Hill plot, nicotine 30 μM, PC12 cells; other: screening at 0.5 μM and 5 μM doses; nicotine 30 μM, PC12 cells; other:
# Procedure: (§1) Rat PC12 pheochromocytoma cells were grown at 37° C. with 6% CO2, in 12-well plates, in Dulbecco's modified Eagle's medium (high glucose) supplemented with fetal bovine serum, horse serum, and penicillin/streptomycin. Secretion assays were performed as described previously (N. Biswas, et al., Endocrinology, 149 (2008), 749-757). Cells were labeled for 3 h with 1 μCi/mL of [^3H]-norepinephrine (NET678, Perkin-Elmer, Waltham, Mass.), then washed three times with basal medium and one time with secretion buffer. Subsequently, the cells were incubated for 30 min with or without the agonist nicotine (30 μM), in the presence or absence of test compounds (0.5 μM or 5 μM). For IC50 determinations, secretion assays were performed in the presence of increasing concentrations of test compounds. The extracellular secretion medium and the cell lysates were collected for [^3H]-norepinephrine measurement by liquid scintillation counting. Results were expressed as percent secretion:
# (§2) % secretion=[amount released/(amount released+amount in lysate)]×100.
# (§3) Net secretion was calculated as agonist-stimulated release minus basal release. To establish the specificity of secretory inhibition by test compounds, in some experiments catecholamine release was triggered with other classes of secretagogues that bypass the nicotinic cholinergic pathway: membrane depolarization (55 mM KCl); P2x purinergic receptor stimulation (100 μM ATP); K^+ (repolarizing) channel blockade (2 mM BaCl2 in the absence of extracellular Ca^2+); or a Ca^2+ ionophore (1 μM ionomycin).
# Actions of test compounds were compared with the classical noncompetitive nicotinic antagonist chlorisondamine, wherein labeled cells were incubated with different doses of nicotine in the presence or absence of peptide antagonists or chlorisondamine (5 μM).
# [2] = test system: nicotinic receptors; assay: Nicotine-induced 45Ca2+ uptake by PC12 cells; type: cell-based, rat; settings: nicotine 30 μM, read-out: IC50 for inhibition of nicotine-induced 45Ca2+ uptake
# Procedure: Nicotinic cholinergic secretory responses in the chromaffin cells are triggered by an early influx of calcium. To test the ability of the compounds to interfere at this early stage of signal transduction, PC12 cells were stimulated with nicotine (30 μM) in the presence or absence of test compounds and agonist-mediated uptake of ^45Ca^2+ was measured. ^45Ca^2+ uptake was performed as described previously with minor modifications S. K. Mahata et al., J. Clin. Invest., 100 (1997), 1623-1633). Briefly, PC12 cells were grown on poly-L-lysine coated 6-well culture dishes, and were washed with 1 mL release buffer (150 mmol/L NaCl, 5 mmol/L KCl, 2 mmol/L CaCl2, 10 mmol/L Hepes buffer, pH 7.4) every 15 minutes for 1 hour at 37° C. Cells were then pre-incubated for 1 min in release buffer in the presence or absence of test compounds. Cells were incubated for 2 min with 1 mL of Ca^2+-free release buffer containing 2 μCi of ^45Ca^2+ (catalog number NEZ01300, Perkin-Elmer), 30 μM nicotine in the presence or absence of test compounds. Thereafter, Ca^2+ uptake was terminated by the addition of 2 mL of ice-cold Ca^2+-free secretion medium containing 2 mmol/L EGTA and 1 mmol/L LaCl3, and further washed six times with 2 mL of the same buffer. Cell lysis buffer (secretion medium containing 0.1% Triton X-100, 1 mL) was then added, and the lysate was collected for liquid scintillation counting.
# [3] = test system: PC12 cells; assay: Basal [3H]-norepinephrine secretion from PC12 cells; type: cell-based, rat; settings: no agonist
# Procedure: as §1, §2
# The compounds were also tested to determine their effect on basal secretion.
# [4] = test system: PC12 cells; assay: Catecholamine release triggered by secretagogues that bypass the nicotinic cholinergic pathway (KCl, ATP, BaCl2, ionomycin); type: cell-based, rat; settings: 55 mM KCl, 100 μM ATP, 2 mM BaCl2, 1 μM ionomycin
# Procedure: as §3
# In addition to nicotinic-cholinergic stimulation, several secretagogues that act at later stages in the secretory pathway than the nicotinic receptor were tested, including membrane depolarization (by KCl), or blockade of repolarization (by Ba^2+). In addition, secretagogues that act on different targets from the nicotinic-cholinergic receptor, such as P2x (ATP) or artificial Ca^2+ pores (Ca^2+ ionophore ionomycin) were used.
# [5] = test system: BPH/2J polygenic hypertensive mice; assay: Telemetric continuous intra-arterial blood pressure and heart rate in hypertensive BPH/2J mice; type: in vivo, mouse; settings: 5 μg/g body weight i.p.
# From the text: Telemetric measurement of blood pressure (BP) in conscious hypertensive mice (polygenic hypertensive BPH/2J mouse model; F. A. Wright et al., Hypertension, 34 (1999), p. 625-630) was achieved using a Data Sciences International (DSI; Transoma Medical) Physiol Tel telemetry system, implanting a catheter coupled to a TA11PA-C20 (DSI) transmitter, as described (N. R. Mahapatra et al., J. Clin. Invest., 115 (2005), 1942-1952). The animals and implants were left to stabilize for ten days after surgery. BPH/2J polygenic hypertensive mice (n=7/group) were then treated with test compound (5 μg/g body weight, intra-peritoneal; or vehicle). BP and heart rate (HR) were measured continuously over 24 hours, before and after compound administration.
# [6] = biological target: nicotinic cholinergic receptor; settings: Mahata et al., Mol. Pharmacol. 66 (2004); read-out: IC50 of human catestatin, previously measured; cited from earlier work
# [7] = Table 1, 30 min, read-out: IC50: concentration that achieves 50% inhibition of secretion
# [8] = increasing compound doses, read-out: IC50 from secretion assays with increasing compound doses
compound,measurement,setting,value
Nc1nc(N)c2nc(CNc3ccc(C(=O)N[C@@H](CCC(=O)O)C(=O)O)cc3)cnc2n1 [TKO-10-1],IC50,[1]; [7],> 5000 nM
O=C(Nc1cc(C2=NCCN2)cc(C2=NCCN2)c1)Nc1cc(C2=NCCN2)cc(C2=NCCN2)c1 [TKO-10-2],IC50,[1]; [7],> 5000 nM
C/N=C(\NC)c1ccc(/N=C(\NC)c2ccc(/C(=N/c3ccc(/C(=N/C)NC)cc3)NC)cc2)cc1 [TKO-10-3],IC50,[1]; [7],1700 nM
C/N=C(/NC)c1ccc(NC(=O)Nc2cccc(NC(=O)Nc3ccc(/C(=N\C)NC)cc3)c2)cc1 [TKO-10-4],IC50,[1]; [7],230 nM
same,IC50,[1]; [8],41 nM
same,IC50,[2],~70 nM and 70 nM
CNC(=O)c1cc(NC(=O)Nc2cccc(C3=NCCN3)c2)cc(NC(=O)Nc2cccc(C3=NCCN3)c2)c1 [TKO-10-5],Hill slope (cooperativity of inhibition of secretion),[1],near unity
same,IC50,[1]; [7],1100 nM
same,IC50,[1]; [8],1000 nM
same,Norepinephrine secretion at ascending nicotine doses (noncompetitive inhibition),[1]; 30 min,reduced norepinephrine secretion significantly
same,Inhibition of catecholamine release triggered by nicotine,[1],significantly inhibited catecholamine release
same,IC50,[2],~100 nM and 100 nM
same,Effect on basal secretion (~5% 3H-NE release),[3],remained unaltered
same,Inhibition of catecholamine release caused by agents acting distal to the receptor or on other receptor classes,[4],"not when secretion was caused by agents acting distal to the receptor, or on other receptor classes"
CNC(=N)c1ccc(NC(=N)c2ccc(Cl)c(C(=N)Nc3ccc(C(=N)NC)cc3)c2)cc1 [TKO-10-6],IC50,[1]; [7],1800 nM
C/N=C(/NC)c1ccc(NC(=O)Nc2ccc(C)c(NC(=O)Nc3ccc(/C(=N\C)NC)cc3)c2)cc1 [TKO-10-7],IC50,[1]; [7],290 nM
same,IC50,[1]; [8],24 nM
same,IC50,[2],~100 nM and 100 nM
CCN/C(=N/c1cccc(C2=NCCN2)c1)c1ccc(/C(=N\c2cccc(C3=NCCN3)c2)NCC)cc1 [TKO-10-8],IC50,[1]; [7],1600 nM
CNC(=O)c1ccc(NC(=O)Nc2cccc(C3=NCCN3)c2)cc1NC(=O)Nc1cccc(C2=NCCN2)c1 [TKO-10-9],IC50,[1]; [7],1400 nM
Nc1nc(N)c(-c2ccc(Cl)cc2)c(CCc2ccc(NC(=O)CBr)cc2)n1 [TKO-10-10],IC50,[1]; [7],1500 nM
Cc1ccnc(NS(=O)(=O)c2ccc(/N=N/c3cc(/N=N/c4ccccc4)c(N)nc3N)cc2)n1 [TKO-10-11],IC50,[1]; [7],> 5000 nM
Nc1nc(N)c(/N=N/c2ccc(S(=O)(=O)Nc3ncccn3)cc2)cc1/N=N/c1ccccc1 [TKO-10-12],IC50,[1]; [7],2000 nM
Cc1cc(NC(=O)NCc2ccc(N3C(N)=NC(N)=NC3(C)C)cc2)ccc1S(=O)(=O)F [TKO-10-13],IC50,[1]; [7],870 nM
CCN(CC)CC(O)CNc1cc(C)nc(NC(=N)Nc2ccc(Cl)c(Cl)c2)n1 (stereo not drawn) [TKO-10-14],IC50,[1]; [7],680 nM
same,Norepinephrine secretion at ascending nicotine doses (noncompetitive inhibition),[1]; 30 min,reduced norepinephrine secretion significantly
same,Inhibition of catecholamine release triggered by nicotine,[1],significantly inhibited catecholamine release
same,Effect on basal secretion (~5% 3H-NE release),[3],remained unaltered
same,Inhibition of catecholamine release caused by agents acting distal to the receptor or on other receptor classes,[4],"not when secretion was caused by agents acting distal to the receptor, or on other receptor classes"
CC1(C)N=C(N)N=C(N)N1c1cccc(CNC(=O)Nc2ccccc2)c1 [TKO-10-15],IC50,[1]; [7],> 5000 nM
CCN1CCC(CNc2cc(C)nc(NC(=N)Nc3ccc(Cl)c(Cl)c3)n2)C1 (stereo not drawn) [TKO-10-16],IC50,[1]; [7],450 nM
CCN1CCC(CNc2cc(C)nc(NC(=N)Nc3cc(Cl)cc(Cl)c3)n2)C1 (stereo not drawn) [TKO-10-17],IC50,[1]; [7],1900 nM
C/C(=N\NC(=N)N)c1cccc(NC(=S)Nc2cccc(/C(C)=N/NC(=N)N)c2)c1 [TKO-10-18],Hill slope (cooperativity of inhibition of secretion),[1],near unity
same,IC50,[1]; [7],180 nM
same,IC50,[1]; [8],17 nM
same,IC50,[2],~90 nM and 90 nM
same,Fall in heart rate (HR),[5],~180 beats/min
same,Reflex tachycardia after fall in BP,[5],not accompanied by reflex tachycardia
same,Time by which BP declines were apparent,[5],10 to 30 min
same,Time for which BP declines were maintained,[5],≤ 60 min
same,Reduction in DBP,[5]; initial DBP 104.9±0.1 mmHg,~25 mmHg
same,Reduction in SBP,[5]; initial SBP 145.0±0.6 mmHg,~33 mmHg
Nc1ccc(CCCCc2nc(N)nc(N)c2-c2ccc(Cl)c(Cl)c2)cc1 [TKO-10-19],IC50,[1]; [7],2600 nM
CCN1CCCC(CNc2cc(C)nc(NC(=N)Nc3ccc(Cl)c(Cl)c3)n2)C1 (stereo not drawn) [TKO-10-20],IC50,[1]; [7],1100 nM
SSMKLSFRARAYGFRGPGPQL [Human catestatin],IC50,[6],820 nM
